A short description of this data set: solvent given as SMILES.

Consider `CCOC(=O)COc1ccc(/C=C/C2=C3c4ccccc4C(c4[nH]c(C)cc4C)=[N+]3[B-](F)(F)n3c(/C=C/c4ccc(OCC(=O)OCC)cc4)cc(C)c32)cc1`, for which the emission maximum is, setting by setting: (in C1CCOC1) 730 nm; (in CC#N) 727 nm; (in CCCCCC) 731 nm; (in CO) 726 nm; (in Cc1ccccc1) 735 nm; (in ClCCl) 733 nm.
For the molecule `O=c1c2ccccc2n2c3ccccc3c(=O)c3cc(-c4ccccc4)cc1c32`, the emission maximum runs as follows: (in CC#N) 475 nm; (in CCCCCC) 447 nm; (in CCCCOCCCC) 454 nm; (in CCOC(C)=O) 464 nm; (in CN(C)C=O) 477 nm; (in Cc1ccccc1) 464.98 nm. Further, the emission maximum (in c1cc(-c2cccc(-n3c4ccccc4c4ccccc43)c2)cc(-n2c3ccccc3c3ccccc32)c1) amounted to 472 nm and the emission maximum (in c1cc(-n2c3ccccc3c3ccccc32)cc(-n2c3ccccc3c3ccccc32)c1) was 472 nm.
Turning to `CN1C(=CC2=C([O-])C(=CC3=[N+](C)c4ccc(Cl)cc4C3(C)C)C2=O)C(C)(C)c2cc(Cl)ccc21`, the emission maximum is reported as 653 nm (in CO) and 654 nm (in ClC(Cl)Cl).
`C1=C(c2ccccc2)C2=Nc3c(-c4ccccc4)cc4n3[B-]3(Oc5ccccc5C1=[N+]23)Oc1ccccc1-4` (stereo not drawn) came in with an emission maximum (in Cc1ccccc1) of 746 nm.
In the case of `COC(=O)c1c(C(=O)OC)c2ccc(-c3ccccc3)nn2c1C`, the emission maximum (in CCCCCC) is listed as 471 nm.
On to `Oc1ccc(-c2cccs2)cc1-c1nc2ccccc2s1`, for which the emission maximum runs as follows: (in CCO) 428 nm; (in ClCCl) 405 nm; (in O) 566 nm.
Consider `CC(=O)OC[C@@H]1O[C@H](n2cnc3c2N=CN2Cc4c[n+](C)c(C)nc4N=C32)[C@@H](O)[C@H]1O`, for which the emission maximum worked out at 415 nm (in CC#N), 416 nm (in CCO) and 409 nm (in O).
The molecule `COc1ccc(C#Cc2nc3ccccc3nc2-c2ccn(-c3ccccc3)c2)cc1` yielded an emission maximum (in ClCCl) of 474 nm.
`Cc1ccc(-n2cccc2)cc1` registered an emission maximum (in CC#N) of 312 nm and an emission maximum (in CCCCCC) of 310 nm.
`F[B-]1(F)OC(c2ccc(C(F)(F)F)cc2)=Cc2cc(Cl)nc[n+]21`: the emission maximum turned out to be 428 nm (in C1CCOC1); 425 nm (in CC#N); 421 nm (in CCCCCC); 434 nm (in Cc1ccccc1); 426 nm (in ClC(Cl)Cl); 426 nm (in ClCCl).
Consider `CC(C)(C)c1ccc(C2=C(Br)C3=C(c4ccccc4)c4c(Br)c(-c5ccc(C(C)(C)C)cc5)c(-c5ccc(C(C)(C)C)cc5)n4[B-](F)(F)[N+]3=C2c2ccc(C(C)(C)C)cc2)cc1`, for which the emission maximum turned out to be 614 nm (in C1CCCCC1); 617 nm (in C1CCOC1); 613 nm (in CC#N); 618 nm (in Cc1ccccc1); 619 nm (in ClCCl).
The molecule `c1ccc(-c2nc3c(c4c2-c2ccccc2CC4)-c2ccccc2CC3)cc1` returned an emission maximum (in C1CCOC1) of 362 nm; an emission maximum (in CC#N) of 360 nm; an emission maximum (in CCCCCC) of 363 nm; an emission maximum (in CCOC(C)=O) of 359 nm; an emission maximum (in CO) of 362 nm; an emission maximum (in CS(C)=O) of 360 nm. Besides, the emission maximum came out at 361 nm (in Cc1ccccc1) and 361 nm (in ClCCl).
`COc1ccc(-c2cc3c(o2)=CC2=Cc4cc5oc(-c6ccc(OC)cc6)cc5n4[B-](F)(F)[N+]=32)cc1` yielded an emission maximum (in ClC(Cl)Cl) of 683 nm.
For the molecule `O=C(O)C1=CC(=C/C=[N+]2/c3cc(O)c(C[C@@H]4O[C@H](CO)[C@@H](O)C(O)[C@H]4O)cc3C[C@H]2C(=O)O)C=C(C(=O)O)N1` (stereo partly drawn), the emission maximum is, setting by setting: (in CO) 588 nm; (in O) 620 nm; (in OCCO) 594 nm; (in [2H]O[2H]) 620 nm.
`O=C1c2ccc(N(c3ccccc3)c3ccccc3)cc2C(=O)c2ccc(N(c3ccccc3)c3ccccc3)cc21`: the emission maximum runs as follows: (in Cc1ccccc1) 601 nm; (in c1ccc2c(c1)c1ccccc1n2-c1ccc(-c2ccc(-n3c4ccccc4c4ccccc43)cc2)cc1) 593 nm.
`c1ccc(-c2ccc(-c3nc(-c4ccccc4)c(N(c4ccccc4)c4ccccc4)[se]3)cc2)cc1` showed an emission maximum (in ClC(Cl)Cl) of 468 nm.
In turn, `COc1ccc(-c2c3ccccc3c(C#Cc3ccccc3)c3cc4ccccc4cc23)cc1` gave an emission maximum (in ClCCl) of 550 nm.
`C1=C(c2ccccc2)B(c2ccccc2)Nc2c1ccc1ccccc21` yielded an emission maximum (in C1CCCCC1) of 396 nm.
Turning to `CC1(C)c2ccccc2N(c2c(F)cc(-c3nnc(-c4ccccc4)o3)cc2F)c2ccccc21`, the emission maximum is on record as 490 nm (in Cc1ccccc1) and 495 nm (in O=P(c1ccccc1)(c1ccccc1)c1ccccc1Oc1ccccc1P(=O)(c1ccccc1)c1ccccc1).
Molecule `CCCCCCCCCCCCOc1cc2c3cc(OCCCCCCCCCCCC)c(OCCCCCCCCCCCC)cc3c3c(cc(OCCCCCCCCCCCC)c4nc5cc(C#Cc6ccc(OCCCCCCCC)cc6)c(C#Cc6ccc(OCCCCCCCC)cc6)cc5nc43)c2cc1OCCCCCCCCCCCC` had an emission maximum (in ClC(Cl)Cl) of 657 nm.
Turning to `CC(C)(C)c1ccc(-c2c(-c3cccc(-n4c5ccccc5c5ccccc54)c3)c(C#N)c(-c3cccc(-n4c5ccccc5c5ccccc54)c3)c(-c3ccc(C(C)(C)C)cc3)c2-c2ccc(C(C)(C)C)cc2)cc1`, under “in C1CCOC1”, the emission maximum worked out at 412 nm.
In the case of `c1ccc2c(c1)c1ccccc1c1ncncc21`, the emission maximum (in ClCCl) is recorded as 368 nm.
On the same count and under the same terms, the figure for `COc1ccc(-c2c3cc4ccccc4cc3c(C#Cc3ccccc3)c3cc4ccccc4cc23)cc1` is 697 nm.
In the case of `N#Cc1c(N2CCCCC2)cc(-c2cccc3ccccc23)c2c1CCc1ccccc1-2`, under “in C1CCOC1”, the emission maximum came out at 465 nm.
Regarding `Cc1cc(C)n2c1C=C1c3ccccc3C(c3c[nH]c4ccccc34)=[N+]1[B-]2(F)F`, the emission maximum runs as follows: (in C1CCOC1) 606 nm; (in CC#N) 602 nm; (in CCCCCC) 598 nm; (in CO) 603 nm; (in Cc1ccccc1) 608 nm; (in ClCCl) 606 nm.
Turning to `CC1=[N+]2C(=C(NCc3ccccc3)c3ccc(C)n3[B-]2(F)F)C=C1c1cc2n(c1)[B-](F)(F)[N+]1=CC=CC1=C2c1c(C)cc(C)cc1C`, the emission maximum came out at 636 nm (in C1CCCCC1) and 700 nm (in CCOC(C)=O).
As for `CCC/N=C/c1cc2ccc(N(C)C)cc2cc1OC`, the emission maximum was determined as 429 nm (in C1CCOC1); 448 nm (in CC#N); 547 nm (in CC(C)O); 441 nm (in CCOC(C)=O); 449 nm (in CN(C)C=O); 456 nm (in CS(C)=O). Further, the emission maximum by setting is: (in Cc1ccccc1) 418 nm; (in ClCCl) 434 nm; (in O) 556 nm.
Under “in CC1CCCCC1”, `c12c3c4c5c1c1c6c7c2c2c8c3c3c9c4c4c%10c5c5c1c1c6c6c%11c%12c%13c%14c%15c%16c%17c%14c%14c%18c%13c%11c1c1c5c%10c5c(c%14c%10c%17c%11c%13c%16c%14c%16c%15c%12c%12c%16c(c2c7c%126)c2c8c3c(c%13c%142)c2c9c4c5c%10c%112)c%181` gave an emission maximum of 650 nm.
`c1ccc(N(c2ccccc2)c2ccc(-c3ncc(-c4ccncc4)s3)cc2)cc1` had an emission maximum (in CO) of 534 nm.
Molecule `COc1cc(-c2nc3sc4ccccc4c3s2)cc(OC)c1OC` came in with an emission maximum (in CS(C)=O) of 424 nm.
